# Test results reported in US6413947B1, “Anilide derivative, production and use thereof” (Takeda Chemical Industries, Ltd., priority 1997, dated 2002).
# Counter-ions that a name gives are not always drawn.
# Test system: not given
# Assay: not given
# Conditions: not given
row,melting point,Structure (SMILES)
1,162 to 163 °C,"Cc1ccc(-c2ccc3c(c2)C=C(C(=O)Nc2ccc(CN(C)C4CCOCC4)cc2)CCO3)cc1 [Compound 128, N-(4—(N-methyl-(N-tetrahydropyran-4-yl)aminomethyl)phenyl)-7—(4-methylphenyl)-2,3-dihydro-1-benzoxepine-4-carboxamide]"
2,193 to 194 °C,"CN(Cc1ccc(NC(=O)C2=Cc3cc(-c4ccc5c(c4)OCO5)ccc3SCC2)cc1)C1CCOCC1 [Compound 286, 7-(3,4-methylenedioxyphenyl)-N-[4-[N-methyl-N-(tetrahydropyran-4-yl)aminomethyl]phenyl]-2,3-dihydro-1-benzothiepine-4-carboxamide]"
3,157 to 159 °C,"O=C(Nc1ccc(CCN2CCCCC2)cc1)C1=Cc2cc(-c3ccccc3)ccc2CC1 [Compound 9, 7-phenyl-N-[4—(2-piperidinoethyl)phenyl]-3,4-dihydro-naphthalene-2-carboxamide]"
4,201 to 202 °C,"Cc1ccc(-c2ccc3c(c2)C=C(C(=O)Nc2ccc(CCN4CCCCC4)cc2)CCO3)cc1 [Compound 99, N-(4—(2-piperidinoethyl)phenyl)-7—(4-methylphenyl)-2,3-dihydro-1-benzoxepine-4-carboxamide]"
5,188 to 190 °C,"Cc1ccc(-c2ccc3c(c2)C=C(C(=O)Nc2ccc(Cc4cccc[n+]4[O-])cc2)CCO3)cc1 [Compound 162, N-[4—(1-oxidopyridin-2-ylmethyl)phenyl]-7—(4-methylphenyl)-2,3-dihydro-1-benzoxepine-4-carboxamide]"
6,196 to 197 °C,"Cc1ccc(-c2ccc3c(c2)C=C(C(=O)Nc2ccc(C[N+]4(C)CCCCC4)cc2)CCS3)cc1 (as salt: iodide) [Compound 94, 1—(N-(7—(4-methylphenyl)-2,3-dihydro-1-benzo-thiepine-4-carbonyl)-4-aminobenzyl)-1-methyl-piperidinium iodide]"
7,240 to 241 °C,"Cc1ccc(-c2cccc(/C=C/C(=O)Nc3ccc(-c4cccc[n+]4[O-])cc3)c2)cc1 [Compound 189, (E)-N-[4—(1-oxidopyridin-2-yl)phenyl]-3—(4-methylphenyl)cinnamamide]"
8,210 to 211 °C,"Cc1ccc(-c2ccc3c(c2)C=C(C(=O)Nc2ccc(CN4CCCCC4)cc2)CC(c2ccccc2)O3)cc1 (stereo not shown) [Compound 102, 7—(4-methylphenyl)-2-phenyl-N-(4—(piperidinomethyl)phenyl)-2,3-dihydro-1-benzoxepine-4-carboxamide]"
9,213 to 214 °C,"Cc1ccc(-c2cccc(/C=C/C(=O)Nc3ccc(-c4cccnc4)cc3)c2)cc1 [Compound 192, (E)-N-[4—(3-pyridyl)phenyl]-3—(4-methylphenyl)cinnamamide]"
10,223 to 224 °C,"Cc1ccc(-c2ccc3c(c2)C=C(C(=O)Nc2ccc(CN4CCC(O)CC4)cc2)CC3)cc1 [Compound 49, N-[4—(4-hydroxypiperidinomethyl)phenyl]-7—(4-methylphenyl)-3,4-dihydronaphthalene-2-carboxamide]"
11,142 to 143 °C,"Cc1ccc(-c2cccc(/C=C/C(=O)Nc3ccc(CN4CCCCC4CCO)cc3)c2)cc1 (stereo not shown) [Compound 69, (E)-N-[4-[2—(2-hydroxyethyl)piperidinomethyl]phenyl]-3—(4-methylphenyl)cinnamamide]"
12,183 to 185 °C,"Cc1ccc(-c2cccc(/C=C/C(=O)Nc3ccc(Cc4cccc[n+]4[O-])cc3)c2)cc1 [Compound 191, (E)-N-[4—(1-oxidopyridin-2-ylmethyl)phenyl]-3—(4-methylphenyl)cinnamamide]"
13,189 to 190 °C,"Cc1ccc(-c2ccc3c(c2)C=C(C(=O)Nc2ccc(CNc4ccccn4)cc2)CCO3)cc1 [Compound 322, N-[4-[(pyrid-2-yl)aminomethyl]phenyl]-7-(4-methylphenyl)-2,3-dihydro-1-benzoxepine-4-carboxamide]"
14,220 to 221 °C (dec.),"Cc1ccc(-c2ccc3c(c2)C=C(C(=O)Nc2ccc(C[N+]4(C)CCCCC4)cc2)CCC3)cc1 (as salt: iodide) [Compound 92, 1—(N-(2—(4-methylphenyl)-6,7-dihydro-5H-benzocycloheptene-8-carbonyl)-4-aminobenzyl)-1-methylpiperidinium iodide]"
15,242 °C (dec.),"COc1ccc[n+]([O-])c1C(O)c1ccc(NC(=O)C2=Cc3cc(-c4ccc(C)cc4)ccc3OCC2)cc1 (stereo not shown) [Compound 170, N-[4-[hydroxy(3-methoxy-1-oxidopyridin-2-yl)methyl]phenyl]-7—(4-methylphenyl)-2,3-dihydro-1-benzoxepine-4-carboxamide]"
16,199 to 201 °C,"Cc1ccc(-c2ccc3c(c2)C=C(C(=O)Nc2ccc(CN4CCC(Cc5ccccc5)CC4)cc2)CC3)cc1 [Compound 35, N-[4—(4-benzyl-piperidinomethyl)phenyl]-7—(4-methylphenyl)-3,4-dihydronaphthalene-2-carboxamide]"
17,177 to 178 °C,"O=C(Nc1ccc(CN2CCCCC2)cc1)c1ccc2ccc(-c3ccccc3)cc2c1 [Compound 58, N-[4—(piperidinomethyl)phenyl]-7-phenylnaphthalene-2-carboxamide]"
18,185 to 187 °C,"Cc1ccc(-c2ccc3c(c2)C=C(C(=O)Nc2ccc(CN(C)C4CCOCC4)cc2)CCN3S(=O)(=O)C(F)(F)F)cc1 [Compound 321, 7-(4-methylphenyl)-N-[4-[[N-methyl-N-(tetrahydro-2H-pyran-4-yl)amino]methyl]-phenyl]-1-[(trifluoromethyl)sulfonyl]-2,3-dihydro-1-benzazepine-4-carboxamide]"
19,193 to 194 °C,"CN(Cc1ccc(NC(=O)C2=Cc3cc(-c4ccc(C(C)(C)C)cc4)ccc3OCC2)cc1)C1CCOCC1 [Compound 179, N-[4-[N-methyl-N-(tetrahydropyran-4-yl)aminomethyl]phenyl]-7—(4-tert-butylphenyl)-2,3-dihydro-1-benzoxepine-4-carboxamide]"

row,Structure (SMILES),melting point
1,"Cc1ccc(-c2ccc3c(c2)C=C(C(=O)Nc2ccc(C[N+]4(C)CCCCC4)cc2)CCO3)cc1 (as salt: chloride) [Compound 97, 1—(N-(7—(4-methylphenyl)-2,3-dihydro-1-benzoxepin-4-carbonyl)-4-aminobenzyl)-1-methylpiperidinium chloride]",231 to 232 °C

# Target: T1, human MCP-1 receptor (Homo sapiens, UniProt P41597)
# T1 construct: expressed in transfected cells; host or cells: CHO cells, transformant CHO(MCR); FERM BP-5446; IFO 50461
# T1 sequence (P41597 whole entry): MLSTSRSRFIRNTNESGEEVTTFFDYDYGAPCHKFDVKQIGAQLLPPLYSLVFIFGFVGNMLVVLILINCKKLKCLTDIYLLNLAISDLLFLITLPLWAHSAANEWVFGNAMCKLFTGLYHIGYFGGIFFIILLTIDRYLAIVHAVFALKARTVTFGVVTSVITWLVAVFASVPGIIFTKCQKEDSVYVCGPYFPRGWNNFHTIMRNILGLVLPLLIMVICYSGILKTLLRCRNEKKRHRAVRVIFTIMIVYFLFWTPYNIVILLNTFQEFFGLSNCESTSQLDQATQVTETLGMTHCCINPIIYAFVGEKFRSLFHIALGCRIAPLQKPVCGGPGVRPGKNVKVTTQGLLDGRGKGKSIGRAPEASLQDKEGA
# Assay: Determination of inhibitory activity on MCP-1 receptor (125I-MCP-1 binding to CHO cells expressing human MCP-1 receptor)
# Conditions: Test Compound 1 μM, 125I-human recombinant MCP-1 100 pM, room temperature 40 minutes
# Description: According to a method described in Working Example 1 of JP-A-238688/1997, human MCP-1 receptor gene was prepared. Said gene was inserted to plasmid pMCR, which was introduced into CHO cell. The resultant transformant [CHO(MCR); FERM BP-5446; IFO 50461] was used for the following experiment.
# On 96 well culture plate (Packard Instrument Company), 7×10^4 cell/well of CHO cells expressing human MCP-1 receptor were inoculated, and the cells were cultivated at 37° C., overnight. The medium was removed by means of suction. To the residue were added a buffer solution (D-MEM containing 0.5% BSA and 20 mM HEPES; pH7.4), Test Compound (1 μM) and ^125I-human recombinant MCP-1 (Amersham; final concentration: 100 pM), and the mixture was allowed to react at room temperature for 40 minutes. The buffer solution was removed by means of suction and washed twice with PBS. To the residue was added MICROSCINT-20 (Packard Instrument Company), radioactivity of ^125I (cpm) was determined with Topcount (Packard).
# The count number (cpm) (non-specific binding) of ^125I which binds to CHO cells (mock) having a vector was taken from the count number (cpm) of ^125I which binds to CHO cells expressing human MCP-1 receptor to obtain the amended count number, which was converted into 100%, and inhibition rate of Test Compound (whose number is referred to in the following Examples) against MCP-1 binding to its receptor was calculated.
row,Inhibition Rate (%) against MCP-1 binding to its receptor,Structure (SMILES)
1,89%,"Cc1ccc(-c2ccc3c(c2)C=C(C(=O)Nc2ccc(C[N+]4(C)CCCCC4)cc2)CC3)cc1 [Compound 16, 1-methyl-1-[4-[7—(4-methylphenyl)-3,4-dihydronaphthalene-2-carboxamido]benzyl]piperidinium iodide]"
2,64%,"CCc1ccc(-c2ccc3c(c2)C=C(C(=O)Nc2ccc(CP4(=O)CCCCC4)cc2)CCO3)cc1 [Compound 178, N-(4—(pentamethylene)-phosphorylmethylphenyl)-7—(4-ethylphenyl)-2,3-dihydro-1-benzoxepine-4-carboxamide]"
3,80%,"Cc1ccc(-c2ccc3c(c2)C=C(C(=O)Nc2ccc(CN(C)C4CCOCC4)cc2)CCO3)cc1 [Compound 128, N-(4—(N-methyl-(N-tetrahydropyran-4-yl)aminomethyl)phenyl)-7—(4-methylphenyl)-2,3-dihydro-1-benzoxepine-4-carboxamide]"
4,77%,"Cc1ccc(-c2cccc(/C=C/C(=O)Nc3ccc(C[N+]4(C)CCCCC4)cc3)c2)cc1 [Compound 72, (E)-1-methyl-1-[4—(3—(4-methylphenyl)cinnamamido)benzyl]-piperidinium iodide]"
5,92%,"Cc1ccc(-c2ccc3c(c2)C=C(C(=O)Nc2ccc(C[N+]4(C)CCCCC4)cc2)CCS3)cc1 [Compound 94, 1—(N-(7—(4-methylphenyl)-2,3-dihydro-1-benzo-thiepine-4-carbonyl)-4-aminobenzyl)-1-methyl-piperidinium iodide]"
6,80%,CN(Cc1ccc(NC(=O)C2=Cc3cc(-c4ccc(N5CCCCC5)cc4)ccc3OCC2)cc1)C1CCOCC1 [Compound 151]

row,Structure (SMILES),Inhibition Rate (%) against MCP-1 binding to its receptor
1,"Cc1ccc(-c2ccc3c(c2)C=C(C(=O)Nc2ccc(C[N+](C)(C)C4CCOCC4)cc2)CCC3)cc1 [Compound 220, N,N-dimethyl-N-(4—((2—(4-methylphenyl)-6,7-dihydro-5H-benzocyclohepten-8-yl)carbonyl)aminobenzyl)-N-(4-tetrahydropyranyl)ammonium iodide]",98%
2,"Cc1ccc(-c2ccc3c(c2)C=C(C(=O)Nc2ccc(C[N+]4(C)CCCCC4)cc2)CCO3)cc1 [Compound 97, 1—(N-(7—(4-methylphenyl)-2,3-dihydro-1-benzoxepin-4-carbonyl)-4-aminobenzyl)-1-methylpiperidinium chloride]",96%
